Laboratory results reported in US20070299083A1, “6-Methoxy-8-[4-(1-(5-fluoro)-quinolin-8-yl-piperidin-4-yl)-piperazin-1-yl]-quinoline hydrochloric acid salts” (Wyeth, priority 2006, published 2007).

Experiment: solubility in aqueous media
Format: physicochemical
Details: even in the presence of surfactants

COc1cc(N2CCN(C3CCN(c4ccc(F)c5cccnc45)CC3)CC2)c2ncccc2c1 [free base, 6-methoxy-8-[4-(1-(5-fluoro)-quinolin-8-yl-piperidin-4-yl)-piperazin-1-yl]-quinoline]
solubility: ~0.4 µg/mL
